Laboratory results: publication PMC11062899, “De novo development of small cyclic peptides that are orally bioavailable” (Nature Chemical Biology, 2023)
“And” between values parts separate entries of the source, which are not always exact repeats. Equal entries are not always repeated. Where two headings read alike, the source gives them in different places.

Columns and labels:
rat α-thrombin = target: T1, rat α-thrombin (Rattus norvegicus, UniProt P18292); assay: Protease inhibition, Ki for rat α-thrombin (fluorogenic substrate Z-Gly-Gly-Arg-AMC); assay type: biochemical; conditions: rat alpha thrombin; for Slope normalized to DMSO (proteolytic substrate cleavage over time): replicates R1-R3
T1 construct: rat α-thrombin (Molecular Innovations) were used at final concentrations of 2 nM and 3 nM; purchased Molecular Innovations
Summary of the method: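 Inhibition was measured as AMC fluorescence from 50 μM substrate, monitored for 30 min at 25 °C, relative to a peptide-free control. Human and rat enzymes were present at 2 nM and 3 nM final, respectively, in 50 mM Tris-HCl pH 7.4, 150 mM NaCl, 10 mM MgCl2, 1 mM CaCl2. Ki derives from fitted IC50 via Cheng–Prusoff.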

porcine pepsin = target: T2, porcine pepsin (Sus scrofa, UniProt P00791); assay: Peptide stability in simulated gastric fluid (SGF); assay type: in vitro ADME
T2 construct: 0.32 g of porcine pepsin (Sigma-Aldrich, P7125) was dissolved under gentle agitation; purchased Sigma-Aldrich P7125
T2 sequence (P00791 60-385): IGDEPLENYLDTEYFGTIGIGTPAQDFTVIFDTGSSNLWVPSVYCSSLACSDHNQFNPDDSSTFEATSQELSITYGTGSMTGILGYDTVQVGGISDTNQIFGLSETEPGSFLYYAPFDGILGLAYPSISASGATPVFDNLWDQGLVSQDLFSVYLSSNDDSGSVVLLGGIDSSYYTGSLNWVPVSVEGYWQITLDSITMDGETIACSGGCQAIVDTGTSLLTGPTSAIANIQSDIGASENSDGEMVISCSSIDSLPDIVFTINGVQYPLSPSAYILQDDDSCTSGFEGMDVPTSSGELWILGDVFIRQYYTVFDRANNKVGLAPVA
Summary of the method: (§1)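 Peptide from a 1 mM DMSO stock was added to fluid pre-warmed at 37 °C. SGF was pH 1.2 NaCl with porcine pepsin (0.32 g per 100 ml), and SIF was pH 6.8 potassium phosphate with porcine pancreatin (1 g per 100 ml). Supernatant peptide was quantified by LC–MS, with residual expressed as T1/T0.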

[1] = Peptide stability in simulated intestinal fluid (SIF); assay type: in vitro ADME, porcine; parameters: remaining at 8 h: dose or concentration left out as unconfirmed; conditions: pH 6.8
Summary of the method: as §1

porcine pancreatin = assay: as above; assay type: in vitro ADME; parameters: remaining at 8 h: dose or concentration left out as unconfirmed; conditions: after 8 h vs 0 h (TIC); single replicates R1-R3
Summary of the method: as §1

[2] = Metabolic stability in rat liver microsomes (RLMs); conditions: for microsomal CLint / half-life: rat

Structure (SMILES): O=C1C[C@H]2CCCN2C(=O)[C@H](Cc2ccccc2)NC(=O)[C@@H](NC(=O)c2ccc(Cl)s2)CCCSCc2cccc(n2)CSCCN1 [compound 35]
- Ki (rat α-thrombin; average of R1-R3, read-out: Ki Average, rat alpha thrombin inhibition): 18.4 nM
- Slope normalized to DMSO (proteolytic substrate cleavage over time) (rat α-thrombin; peptide 1.02E-03 uM): 95.3 and 93.5 and 90.4
- Slope normalized to DMSO (proteolytic substrate cleavage over time) (rat α-thrombin; peptide 1.04E+00 uM): 8.6 and 8.7 and 5.7
- Slope normalized to DMSO (proteolytic substrate cleavage over time) (rat α-thrombin; peptide 1.27E-04 uM): 96.6 and 98.1 and 94.9
- Slope normalized to DMSO (proteolytic substrate cleavage over time) (rat α-thrombin; peptide 1.30E-01 uM): 29.1 and 30.9 and 27.9
- Slope normalized to DMSO (proteolytic substrate cleavage over time) (rat α-thrombin; peptide 1.59E-05 uM): 99.9 and 100.8 and 98.0
- Slope normalized to DMSO (proteolytic substrate cleavage over time) (rat α-thrombin; peptide 1.63E-02 uM): 66.4 and 67.5 and 64.5
- Slope normalized to DMSO (proteolytic substrate cleavage over time) (rat α-thrombin; peptide 1.67E+01 uM): 5.5 and 6.4 and 3.4
- Slope normalized to DMSO (proteolytic substrate cleavage over time) (rat α-thrombin; peptide 2.03E-03 uM): 85.0 and 86.2 and 80.9
- Slope normalized to DMSO (proteolytic substrate cleavage over time) (rat α-thrombin; peptide 2.08E+00 uM): 8.2 and 8.0 and 6.0
- Slope normalized to DMSO (proteolytic substrate cleavage over time) (rat α-thrombin; peptide 2.54E-04 uM): 94.8 and 90.7 and 91.8
- Slope normalized to DMSO (proteolytic substrate cleavage over time) (rat α-thrombin; peptide 2.60E-01 uM): 20.1 and 21.2 and 15.6
- Slope normalized to DMSO (proteolytic substrate cleavage over time) (rat α-thrombin; peptide 3.18E-05 uM): 99.5 and 101.3 and 96.2
- Slope normalized to DMSO (proteolytic substrate cleavage over time) (rat α-thrombin; peptide 3.26E-02 uM): 58.6 and 59.5 and 55.9
- Slope normalized to DMSO (proteolytic substrate cleavage over time) (rat α-thrombin; peptide 3.33E+01 uM): 4.9 and 6.5 and 3.7
- Slope normalized to DMSO (proteolytic substrate cleavage over time) (rat α-thrombin; peptide 4.07E-03 uM): 77.2 and 73.8 and 74.9
- Slope normalized to DMSO (proteolytic substrate cleavage over time) (rat α-thrombin; peptide 4.17E+00 uM): 6.8 (2×) and -8.2
- Slope normalized to DMSO (proteolytic substrate cleavage over time) (rat α-thrombin; peptide 5.09E-04 uM): 92.2 and 90.6 and 87.0
- Slope normalized to DMSO (proteolytic substrate cleavage over time) (rat α-thrombin; peptide 5.21E-01 uM): 12.0 and 12.9 and 10.7
- Slope normalized to DMSO (proteolytic substrate cleavage over time) (rat α-thrombin; peptide 6.36E-05 uM): 97.8 and 99.0 and 94.4
- Slope normalized to DMSO (proteolytic substrate cleavage over time) (rat α-thrombin; peptide 6.51E-02 uM): 36.9 and 38.0 and 37.1
- Slope normalized to DMSO (proteolytic substrate cleavage over time) (rat α-thrombin; peptide 6.67E+01 uM): 5.7 and 6.9 and 3.2
- Slope normalized to DMSO (proteolytic substrate cleavage over time) (rat α-thrombin; peptide 7.95E-06 uM): 102.6 and 104.4 and 98.4
- Slope normalized to DMSO (proteolytic substrate cleavage over time) (rat α-thrombin; peptide 8.14E-03 uM): 67.4 and 67.8 and 64.3
- Slope normalized to DMSO (proteolytic substrate cleavage over time) (rat α-thrombin; peptide 8.33E+00 uM): 6.5 and 6.4 and -9.8
- IC50 (rat α-thrombin; single replicates R1-R3, read-out: IC50, rat alpha thrombin inhibition): 31.1 nM and 30.7 nM and 37.8 nM
- Ki (rat α-thrombin; single replicates R1-R3, read-out: Ki, rat alpha thrombin inhibition): 17.2 nM (2×) and 17 nM (2×) and 20.9 nM (2×)
- SGF stability, Residual peptide Average (porcine pepsin; after 8 h vs 0 h (TIC), average of R1-R3): 98.71
- SGF stability, Residual peptide (porcine pepsin; after 8 h vs 0 h (TIC), single replicates R1-R3): 102.19 and 96.66 and 97.27
- remaining at 8 h (porcine pepsin; simulated gi fluid, 8 h, 37 °C, pH 1.2, read-out: Proteolytic stability: SGF (8 h) % remaining): 99 ± 3%
- remaining at 8 h ([1]; pig, after 8 h vs 0 h (TIC), average of R1-R3, read-out: SIF stability, Residual peptide Average): 31.4%
- remaining at 8 h ([1]; simulated gi fluid, 8 h, 37 °C, read-out: Proteolytic stability: SIF (8 h) % remaining): 31 ± 3%
- SIF stability, Residual peptide (porcine pancreatin): 32.04 and 28.68 and 33.58
- TIC value of compound, 0 min, R1 ([2]; rat liver microsomes, 0 min, replicate R1): 23625921
- TIC value of compound, 0 min, R3 ([2]; rat liver microsomes, 0 min, replicate R3): 25801224
- TIC value of compound, 5 min, R1 ([2]; rat liver microsomes, 5 min, replicate R1): 20860918
- TIC value of compound, 5 min, R3 ([2]; rat liver microsomes, 5 min, replicate R3): 23019710
- TIC value of compound, 15 min, R1 ([2]; rat liver microsomes, 15 min, replicate R1): 12779197
- TIC value of compound, 15 min, R3 ([2]; rat liver microsomes, 15 min, replicate R3): 13375542
- TIC value of compound, 30 min, R1 ([2]; rat liver microsomes, 30 min, replicate R1): 7192264
- TIC value of compound, 30 min, R3 ([2]; rat liver microsomes, 30 min, replicate R3): 5638202
- TIC value of compound, 60 min, R1 ([2]; rat liver microsomes, 60 min, replicate R1): 1618321
- TIC value of compound, 60 min, R3 ([2]; rat liver microsomes, 60 min, replicate R3): 1784495
- microsomal CLint ([2]; CL (ul/min/mg protein), R1, RLM CL, replicate R1, unrounded): 79 µL/min/mg
- microsomal CLint ([2]; CL (ul/min/mg protein), R2, RLM CL, replicate R2, unrounded): 90.4 µL/min/mg
- microsomal CLint ([2]; CL (ul/min/mg protein), R3, RLM CL, replicate R3, unrounded): 88.3 µL/min/mg
- half-life ([2]; Half Life (min), R1, RLM metabolic stability, replicate R1): 17.6 min
- half-life ([2]; Half Life (min), R2, RLM metabolic stability, replicate R2): 15.3 min
- half-life ([2]; Half Life (min), R3, RLM metabolic stability, replicate R3): 15.7 min
- half-life ([2]; microsomes, Metabolic stability: Half life T1/2 (min), RLMs, mean and SD, three measurements): 16.2 ± 1 min
- microsomal CLint ([2]; microsomes, Metabolic stability: RLM CL (ul/min/mg), RLMs, mean and SD, three measurements): 86 ± 5 µL/min/mg
- microsomal CLint ([2]; microsomes, RLM CL, Average, average of R1-R3): 85.9 µL/min/mg
- microsomal CLint ([2]; microsomes, RLM CL, R1, RLM CL, replicate R1, summary block): 79 µL/min/mg
- microsomal CLint ([2]; microsomes, RLM CL, R2, RLM CL, replicate R2, summary block): 90.3 µL/min/mg
- microsomal CLint ([2]; microsomes, RLM CL, R3, RLM CL, replicate R3, summary block): 88.3 µL/min/mg
